# Experiments:
# in vitro = conditions: human, MT2 cells
# Description: Cytotoxicity against human MT2 cells
# in vivo = conditions: rat, po, 5 mg/kg
# Description: AUC (0 to 24 hrs) in rat at 5 mg/kg, po
# [1] = Dissociation constant, pKa of the compound; assay type: physicochemical
# [2] = Half life in rat liver microsomes at 0.5 uM in presence of NADPH by LC-MS/MS analysis; assay type: ADME
# [3] = Half life in iv dosed mouse by LC-MS/MS analysis; assay type: ADME, organism-based; conditions: in vivo
# [4] = AUCtotal in Cynomolgus monkey at 2 mg/kg administered via oral gavage by LC-MS/MS analysis; assay type: ADME, organism-based, Macaca fascicularis; set-up: dose 2 mg/kg, route oral, time AUCmax; conditions: in vivo
# [5] = AUCtotal in dog at 1.85 mg/kg administered via oral gavage by LC-MS/MS analysis; assay type: ADME, organism-based, Canis lupus familiaris; set-up: dose 1.85 mg/kg, time AUCmax, route oral; conditions: in vivo
# [6] = Drug level in mouse at 5 mg/kg administered via oral gavage after 24 hrs by LC-MS/MS analysis; assay type: ADME, organism-based; conditions: in vivo, read-out: Drug uptake
# [7] = Half life in human liver microsomes at 0.5 uM in presence of NADPH by LC-MS/MS analysis; assay type: ADME
# [8] = Half life in iv dosed rat by LC-MS/MS analysis; assay type: ADME, organism-based; conditions: in vivo
# [9] = Oral bioavailability in mouse at 5 mg/kg by LC-MS/MS analysis; assay type: ADME, organism-based; conditions: in vivo
# Salmonella typhimurium = experiment: Mutagenicity in Salmonella typhimurium; assay type: toxicity, organism-based; conditions: salmonella enterica subsp. enterica serovar typhimurium
# [10] = Inhibition of CYP450 in human microsomes; assay type: ADME
# [11] = Drug level in dog at 1.85 mg/kg administered via oral gavage after 24 hrs by LC-MS/MS analysis; assay type: ADME, organism-based, Canis lupus familiaris; conditions: in vivo, read-out: Drug uptake
# [12] = Half life in monkey liver microsomes at 0.5 uM in presence of NADPH by LC-MS/MS analysis; assay type: ADME, Macaca mulatta; conditions: rhesus monkey
# [13] = Half life in iv dosed Cynomolgus monkey by LC-MS/MS analysis; assay type: ADME, organism-based, Macaca fascicularis; conditions: in vivo
# [14] = AUCtotal in mouse at 5 mg/kg administered via oral gavage by LC-MS/MS analysis; assay type: ADME, organism-based; set-up: dose 5 mg/kg, route oral, time AUCmax; conditions: in vivo
# [15] = Oral bioavailability in dog at 1.85 mg/kg by LC-MS/MS analysis; assay type: ADME, organism-based, Canis lupus familiaris; conditions: in vivo
# [16] = Oral bioavailability in rat at 5 mg/kg by LC-MS/MS analysis; assay type: ADME, organism-based; conditions: in vivo
# [17] = Half life in iv dosed dog by LC-MS/MS analysis; assay type: ADME, organism-based, Canis lupus familiaris; conditions: in vivo
# [18] = Half life in dog liver microsomes at 0.5 uM in presence of NADPH by LC-MS/MS analysis; assay type: ADME, Canis lupus familiaris
# [19] = Oral bioavailability in Cynomolgus monkey at 2 mg/kg by LC-MS/MS analysis; assay type: ADME, organism-based, Macaca fascicularis; conditions: in vivo
# [20] = Drug level in Cynomolgus monkey at 2 mg/kg administered via oral gavage after 24 hrs by LC-MS/MS analysis; assay type: ADME, organism-based, Macaca fascicularis; conditions: in vivo, read-out: Drug uptake
# [21] = AUCtotal in rat at 5 mg/kg administered via oral gavage by LC-MS/MS analysis; assay type: ADME, organism-based; set-up: dose 5 mg/kg, time AUCmax, route oral; conditions: in vivo
# [22] = Drug level in rat at 5 mg/kg administered via oral gavage after 24 hrs by LC-MS/MS analysis; assay type: ADME, organism-based; conditions: in vivo, read-out: Drug uptake
# [23] = Protein binding in human serum by ultracentrifugation method; assay type: ADME; conditions: read-out: PB
smiles,measurement,setting,value
C=C(C)[C@@H]1CC[C@]2(C(=O)O)CC[C@]3(C)[C@H](CC[C@@H]4[C@@]5(C)CC=C(c6ccc(C(=O)O)cc6)C(C)(C)[C@@H]5CC[C@]43C)[C@@H]12,CC50,in vitro,27.2 nM
same,AUC(0-t) at 24 h,in vivo,5.72 µM·h
C=C(C)[C@@H]1CC[C@]2(C(=O)NCCN(C)C)CC[C@]3(C)[C@H](CC[C@@H]4[C@@]5(C)CC=C(c6ccc(C(=O)O)cc6)C(C)(C)[C@@H]5CC[C@]43C)[C@@H]12,CC50,in vitro,2.61 nM
same,AUC(0-t) at 24 h,in vivo,1.62 µM·h
C=C(C)[C@@H]1CC[C@]2(CNCCCN3CCS(=O)(=O)CC3)CC[C@]3(C)[C@H](CC[C@@H]4[C@@]5(C)CC=C(c6ccc(C(=O)O)cc6)C(C)(C)[C@@H]5CC[C@]43C)[C@@H]12,pKa,[1],4.5
same,CC50,in vitro,3.5 nM
same,AUC(0-t) at 24 h,in vivo,1.71 µM·h
C=C(C)[C@@H]1CC[C@]2(CNCCN(C)C)CC[C@]3(C)[C@H](CC[C@@H]4[C@@]5(C)CC=C(c6ccc(C(=O)O)cc6)C(C)(C)[C@@H]5CC[C@]43C)[C@@H]12,CC50,in vitro,1.24 nM
same,AUC(0-t) at 24 h,in vivo,0.153 µM·h
C=C(C)[C@@H]1CC[C@]2(CNC(C)C)CC[C@]3(C)[C@H](CC[C@@H]4[C@@]5(C)CC=C(c6ccc(C(=O)O)cc6)C(C)(C)[C@@H]5CC[C@]43C)[C@@H]12,CC50,in vitro,2.36 nM
C=C(C)[C@@H]1CC[C@]2(CNCCO)CC[C@]3(C)[C@H](CC[C@@H]4[C@@]5(C)CC=C(c6ccc(C(=O)O)cc6)C(C)(C)[C@@H]5CC[C@]43C)[C@@H]12,CC50,in vitro,8.48 nM
same,AUC(0-t) at 24 h,in vivo,4.98 µM·h
C=C(C)[C@@H]1CC[C@]2(CNCCCN3CCCC3=O)CC[C@]3(C)[C@H](CC[C@@H]4[C@@]5(C)CC=C(c6ccc(C(=O)O)cc6)C(C)(C)[C@@H]5CC[C@]43C)[C@@H]12,CC50,in vitro,5.8 nM
same,AUC(0-t) at 24 h,in vivo,1.04 µM·h
C=C(C)[C@@H]1CC[C@]2(NCCN3CCS(=O)(=O)CC3)CC[C@]3(C)[C@H](CC[C@@H]4[C@@]5(C)CC=C(c6ccc(C(=O)O)cc6)C(C)(C)[C@@H]5CC[C@]43C)[C@@H]12 [BMS-955176],half-life at 0.5 µM,[2],> 2 h
same,half-life,[3],8.9 h
same,AUC,[4],0.995 µM·h
same,AUC,[5],29.4 µM·h
same,concentration at 24 h,[6],256 nM
same,half-life at 0.5 µM,[7],> 2 h
same,half-life,[8],6.6 h
same,bioavailability,[9],27%
same,Activity,Salmonella typhimurium,Non-toxic
same,inhibition (INH),[10],Not Active
same,concentration at 24 h,[11],559 nM
same,half-life at 0.5 µM,[12],0.2 h
same,CC50,in vitro,9.2 nM
same,half-life,[13],8.6 h
same,AUC,[14],28.9 µM·h
same,bioavailability,[15],8.5%
same,bioavailability,[16],26%
same,half-life,[17],31.7 h
same,half-life at 0.5 µM,[18],> 2 h
same,AUC(0-t) at 24 h,in vivo,4.13 µM·h
same,bioavailability,[19],3.9%
same,concentration at 24 h,[20],17.4 nM
same,AUC,[21],14.2 µM·h
same,concentration at 24 h,[22],128 nM
same,fraction unbound,[23],< 0.16

# Source: ChEMBL document CHEMBL3826912 (ACS Med Chem Lett, 2016)
